# Like-named read-outs stand apart in the source and are kept apart here.
# Assays:
# [1] = test system: SW48 cells; test: Proliferation assay SW48 (CellTiterGlo); type: cell-based; conditions: SW48 colon carcinoma cells, 96 hours, CellTiterGlo, geometric mean of at least 2, read-out: Proliferation Assay SW48 GI50
# Procedure, shortened: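 Read-out is CellTiterGlo luminescence after 96 hours of compound exposure, with % growth calculated against day-0 and vehicle-treated ATP levels. SW48 seeded at 2,000 cells/well, dosed next day with eight 3-fold serial dilutions, 0.1% DMSO. GI50 reported as geometric mean, at least 2 replicates.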
# [2] = test system: DLD1-WRN-KO cells; test: Proliferation assay DLD1-WRN-KO (CellTiterGlo, off-target effects); type: cell-based; conditions: 96 hours, geometric mean of at least 2
# Procedure, shortened: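 DLD1 cells with CRISPR knockout of WRN were exposed overnight-seeded to eight 3-fold compound dilutions (0.1% DMSO) for 96 h at 37 °C. Viability was read as ATP by CellTiterGlo luminescence against a day-0 plate, giving GI50 and residual viability at top concentration.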
# [3] = target: T1, WRN helicase (aa N517-P1238) (Homo sapiens, UniProt Q14191); test: WRN ATPase assay (DNA dependent ATP hydrolysis, ADP-Glo); type: biochemical; conditions: 3 hours pre-incubation, 300 micromolar ATP, FLAP26 DNA; geometric mean of at least 2
# T1 construct: The core helicase motif of the WRN protein (aa N517-P1238) was produced for this assay; His (N); ZZ (N); 3C protease cleavage site (N); made in house; host or cells: Sf21 insect cells (baculovirus; virus and BIICs made in SF9)
# T1 sequence (Q14191 517-1238): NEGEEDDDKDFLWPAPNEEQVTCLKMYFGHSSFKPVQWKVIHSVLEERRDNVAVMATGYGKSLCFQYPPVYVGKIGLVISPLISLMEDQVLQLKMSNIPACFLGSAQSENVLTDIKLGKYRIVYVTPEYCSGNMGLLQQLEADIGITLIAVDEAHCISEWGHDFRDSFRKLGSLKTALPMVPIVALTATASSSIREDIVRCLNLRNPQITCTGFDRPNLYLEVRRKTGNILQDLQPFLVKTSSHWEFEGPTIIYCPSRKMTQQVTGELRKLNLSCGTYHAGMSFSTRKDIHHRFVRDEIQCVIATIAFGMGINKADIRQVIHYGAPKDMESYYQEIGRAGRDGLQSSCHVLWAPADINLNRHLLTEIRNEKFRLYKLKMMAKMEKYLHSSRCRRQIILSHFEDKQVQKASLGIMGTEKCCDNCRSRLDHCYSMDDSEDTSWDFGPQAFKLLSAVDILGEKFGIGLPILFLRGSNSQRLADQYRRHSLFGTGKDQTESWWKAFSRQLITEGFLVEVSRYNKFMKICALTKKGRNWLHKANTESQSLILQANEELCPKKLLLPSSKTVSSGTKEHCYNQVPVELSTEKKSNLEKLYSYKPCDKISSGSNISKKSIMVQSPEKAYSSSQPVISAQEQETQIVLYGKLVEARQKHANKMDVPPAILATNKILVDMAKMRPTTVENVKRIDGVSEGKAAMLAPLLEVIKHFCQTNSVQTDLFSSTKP
# Procedure, shortened: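 DNA-dependent ATP hydrolysis detected as ADP by ADP-Glo luminescence, using 300 μM ATP, 0.2 nM FLAP26 substrate and 10 nM WRN aa N517-P1238 (Tris pH 7.5 buffer, 2 mM MgCl2, 50 mM NaCl). IC50s fitted from normalized duplicate half-log dilutions; reported as geometric means of at least 2 replicates.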
"GI50 ([1]; Homo sapiens, SW48, 96 h)",GI50 [2],IC50 [3],GI50 [1],Compound
> 10000 nM,> 10000 nM,100 nM,–,"Cc1c(N2CCN(C(=O)c3cc(F)cnc3O)CC2)c(=O)n2nc(C3=CCOCC3)nc2n1CC(=O)Nc1ccc(C(F)(F)F)cc1 [Example 21, 2-(2-(3,6-dihydro-2H-pyran-4-yl)-6-(4-(5-fluoro-2-hydroxynicotinoyl)piperazin-1-yl)-5-methyl-7-oxo-[1,2,4]triazolo[1,5-a]pyrimidin-4(7H)-yl)-N-(4-(trifluoromethyl)phenyl)acetamide]"
800 nM,> 10000 nM,60 nM,–,"CCc1c(N2CCN(C(=O)c3nn(C)c(=O)[nH]3)CC2)c(=O)n2nc(C3=CCC(OC)CC3)nc2n1CC(=O)Nc1ccc(C(F)(F)F)cc1 (stereo not drawn) [Example 53, 2-(5-ethyl-2-(4-methoxycyclohex-1-en-1-yl)-6-(4-(1-methyl-5-oxo-4,5-dihydro-1H-1,2,4-triazole-3-carbonyl)piperazin-1-yl)-7-oxo-[1,2,4]triazolo[1,5-a]pyrimidin-4(7H)-yl)-N-(4-(trifluoromethyl)phenyl)acetamide]"
1000 nM,> 10000 nM,300 nM,–,"CC(=O)N1CCN(c2c(C)n(CC(=O)Nc3ccc(C(F)(F)F)c(F)c3C)c3nc(C4=CCOCC4)nn3c2=O)CC1 [Example 84, 2-(6-(4-acetylpiperazin-1-yl)-2-(3,6-dihydro-2H-pyran-4-yl)-5-methyl-7-oxo-[1,2,4]triazolo[1,5-a]pyrimidin-4(7H)-yl)-N-(3-fluoro-2-methyl-4-(trifluoromethyl)phenyl)acetamide]"
> 10000 nM,> 10000 nM,60 nM,–,"Cc1c(N2CCN(C(=O)c3ccnc(F)c3O)CC2)c(=O)n2nc(C3=CCOCC3)nc2n1CC(=O)Nc1ccc(C(F)(F)F)cc1 [Example 19, 2-(2-(3,6-dihydro-2H-pyran-4-yl)-6-(4-(2-fluoro-3-hydroxyisonicotinoyl)piperazin-1-yl)-5-methyl-7-oxo-[1,2,4]triazolo[1,5-a]pyrimidin-4(7H)-yl)-N-(4-(trifluoromethyl)phenyl)acetamide]"
4000 nM,> 10000 nM,300 nM,–,"COC(=O)N1CCN(c2nc3n(CC(=O)Nc4ccc(S(F)(F)(F)(F)F)cc4)c(C)c(N4CCN(C(C)=O)CC4)c(=O)n3n2)CC1 [Example 81, methyl 4-(6-(4-acetylpiperazin-1-yl)-5-methyl-7-oxo-4-(2-oxo-2-((4-(pentafluoro-l6-sulfaneyl)phenyl)amino)ethyl)-4,7-dihydro-[1,2,4]triazolo[1,5-a]pyrimidin-2-yl)piperazine-1-carboxylate]"
6000 nM,> 10000 nM,1000 nM,–,"CC(=O)N1CCN(c2c(C)n(CC(=O)Nc3ccc(C(F)(F)F)nc3Cl)c3nc(C4=CCOCC4)nn3c2=O)CC1 [Example 98, 2-(6-(4-acetylpiperazin-1-yl)-2-(3,6-dihydro-2H-pyran-4-yl)-5-methyl-7-oxo-[1,2,4]triazolo[1,5-a]pyrimidin-4(7H)-yl)-N-(2-chloro-6-(trifluoromethyl)pyridin-3-yl)acetamide]"
1000 nM,> 10000 nM,300 nM,–,"CCc1c(N2CCN(C(C)=O)CC2)c(=O)n2nc(C3=CCOCC3)nc2n1CC(=O)Nc1ccc(C(F)(F)F)cc1Cl [Example 59, 2-(6-(4-acetylpiperazin-1-yl)-2-(3,6-dihydro-2H-pyran-4-yl)-5-ethyl-7-oxo-[1,2,4]triazolo[1,5-a]pyrimidin-4(7H)-yl)-N-(2-chloro-4-(trifluoromethyl)phenyl)acetamide]"
5000 nM,> 10000 nM,4000 nM,–,"CC(=O)N1CCN(c2c(C)n(CC(=O)Nc3ccc(C(F)(F)F)cc3)c3nc(C4=CCCO4)nn3c2=O)CC1 [Example 134, 2-(6-(4-acetylpiperazin-1-yl)-2-(4,5-dihydrofuran-2-yl)-5-methyl-7-oxo-[1,2,4]triazolo[1,5-a]pyrimidin-4(7H)-yl)-N-(4-(trifluoromethyl)phenyl)acetamide]"
60 nM,> 10000 nM,50 nM,–,"CCc1c(N2CCN(C(=O)c3ncc4c(c3O)OCC4)CC2)c(=O)n2nc(C3=CCOCC3)nc2n1CC(=O)Nc1ccc(C(F)(F)F)cc1Cl [Example 11, N-(2-chloro-4-(trifluoromethyl)phenyl)-2-(2-(3,6-dihydro-2H-pyran-4-yl)-5-ethyl-6-(4-(7-hydroxy-2,3-dihydrofuro[3,2-c]pyridine-6-carbonyl)piperazin-1-yl)-7-oxo-[1,2,4]triazolo[1,5-a]pyrimidin-4(7H)-yl)acetamide]"
–,> 10000 nM,100 nM,1000 nM,"CCc1c(N2CCN(C(=O)C3CCOC3)CC2)c(=O)n2nc(C3=CCCCO3)nc2n1CC(=O)Nc1ccc(C(F)(F)F)cc1 (stereo not drawn) [Example 56, 2-(2-(3,4-dihydro-2H-pyran-6-yl)-5-ethyl-7-oxo-6-(4-(tetrahydrofuran-3-carbonyl)piperazin-1-yl)-[1,2,4]triazolo[1,5-a]pyrimidin-4(7H)-yl)-N-(4-(trifluoromethyl)phenyl)acetamide]"
900 nM,> 10000 nM,80 nM,–,"CCc1c(N2CCN(C(=O)c3c(O)ccc4nccn34)CC2)c(=O)n2nc(C3=CCOCC3)nc2n1CC(=O)Nc1ccc(C(F)(F)F)cc1C [Example 44, 2-(2-(3,6-dihydro-2H-pyran-4-yl)-5-ethyl-6-(4-(6-hydroxyimidazo[1,2-a]pyridine-5-carbonyl)piperazin-1-yl)-7-oxo-[1,2,4]triazolo[1,5-a]pyrimidin-4(7H)-yl)-N-(2-methyl-4-(trifluoromethyl)phenyl)acetamide]"
1000 nM,> 10000 nM,80 nM,–,"CCc1c(N2CCN(C(=O)c3ccn4ccnc4c3O)CC2)c(=O)n2nc(C3=CCOCC3)nc2n1CC(=O)Nc1ccc(C(F)(F)F)cc1C [Example 43, 2-(2-(3,6-dihydro-2H-pyran-4-yl)-5-ethyl-6-(4-(8-hydroxyimidazo[1,2-a]pyridine-7-carbonyl)piperazin-1-yl)-7-oxo-[1,2,4]triazolo[1,5-a]pyrimidin-4(7H)-yl)-N-(2-methyl-4-(trifluoromethyl)phenyl)acetamide]"
200 nM,> 10000 nM,100 nM,–,"CC(=O)N1CCN(c2c(C)n(CC(=O)Nc3ccc(C(F)(F)F)cc3)c3nc(-c4cccnc4)nn3c2=O)CC1 [Example 106, 2-(6-(4-acetylpiperazin-1-yl)-5-methyl-7-oxo-2-(pyridin-3-yl)-[1,2,4]triazolo[1,5-a]pyrimidin-4(7H)-yl)-N-(4-(trifluoromethyl)phenyl)acetamide]"
2000 nM,> 10000 nM,300 nM,–,"CC(=O)N1CCN(c2c(C)n(CC(=O)Nc3cc(F)c(C(F)(F)F)cc3C)c3nc(C4=CCOCC4)nn3c2=O)CC1 [Example 83, 2-(6-(4-acetylpiperazin-1-yl)-2-(3,6-dihydro-2H-pyran-4-yl)-5-methyl-7-oxo-[1,2,4]triazolo[1,5-a]pyrimidin-4(7H)-yl)-N-(5-fluoro-2-methyl-4-(trifluoromethyl)phenyl)acetamide]"
4000 nM,> 10000 nM,700 nM,–,"CC(=O)N1CCN(c2c(C)n(CC(=O)Nc3ccc(C(F)(F)F)cc3)c3nc(-c4ccc(F)cc4)nn3c2=O)CC1 [Example 124, 2-(6-(4-acetylpiperazin-1-yl)-2-(4-fluorophenyl)-5-methyl-7-oxo-[1,2,4]triazolo[1,5-a]pyrimidin-4(7H)-yl)-N-(4-(trifluoromethyl)phenyl) acetamide]"
1000 nM,> 10000 nM,300 nM,–,"CCc1c(N2CCN(C(=O)c3nccc4cccc(O)c34)CC2)c(=O)n2nc(C3=CCOCC3)nc2n1CC(=O)Nc1ccc(C(F)(F)F)cc1C [Example 50, 2-(2-(3,6-dihydro-2H-pyran-4-yl)-5-ethyl-6-(4-(8-hydroxyisoquinoline-1-carbonyl)piperazin-1-yl)-7-oxo-[1,2,4]triazolo[1,5-a]pyrimidin-4(7H)-yl)-N-(2-methyl-4-(trifluoromethyl)phenyl)acetamide]"
4000 nM,> 10000 nM,500 nM,–,"CC(=O)N1CCN(c2c(C)n(CC(=O)Nc3ccc(C(F)(F)F)cc3F)c3nc(C4=CCOCC4)nn3c2=O)CC1 [Example 85, 2-(6-(4-acetylpiperazin-1-yl)-2-(3,6-dihydro-2H-pyran-4-yl)-5-methyl-7-oxo-[1,2,4]triazolo[1,5-a]pyrimidin-4(7H)-yl)-N-(2-fluoro-4-(trifluoromethyl)phenyl)acetamide]"
300 nM,> 10000 nM,90 nM,–,"CCc1c(N2CCN(C(=O)c3ccc(Cl)c(F)c3O)CC2)c(=O)n2nc(C3=CCOCC3)nc2n1CC(=O)Nc1ccc(C(F)(F)F)cc1C [Example 45, 2-(6-(4-(4-chloro-3-fluoro-2-hydroxybenzoyl)piperazin-1-yl)-2-(3,6-dihydro-2H-pyran-4-yl)-5-ethyl-7-oxo-[1,2,4]triazolo[1,5-a]pyrimidin-4(7H)-yl)-N-(2-methyl-4-(trifluoromethyl)phenyl)acetamide]"

# Reference: patent publication US20260250289A1, “BICYCLIC HETEROCYCLES AND THEIR USE AS WRN INHIBITORS” (Novartis AG, priority 2022, published 2026)
